According to ChEMBL document CHEMBL1201862, “PubChem BioAssay data set” (2004):
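Briefly, cells in 96-well plates were exposed to five compound concentrations for 48 h, and endpoints were estimated by linear interpolation. Here, GI50 denotes the concentration required for 50% inhibition of growth.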 Activity calls are given as the source filed them. No stated cut-off is given here; in the data, active = GI50 up to about 1.1 µM and inactive = higher.

Assays:
Experiment in all cases: inhibition of tumour cell growth, NCI panel, 48 h
DLD-1 = system: DLD-1
DMS-114 = system: DMS-114
HOP-18 = system: HOP-18
KM-20L2 = system: KM-20L2
M19-MEL = system: M19-MEL
SNB-78 = system: SNB-78
XF498 = system: XF498
DMS-273 = system: DMS-273
RXF 631 = system: RXF 631

| Structure (SMILES) | GI50 (DLD-1) | GI50 (DMS-114) | GI50 (HOP-18) | GI50 (KM-20L2) | GI50 (M19-MEL) | GI50 (SNB-78) | GI50 (XF498) | GI50 (DMS-273) | GI50 (RXF 631) |
| --- | --- | --- | --- | --- | --- | --- | --- | --- | --- |
| O=C1CC2C(=O)N(Cc3ccccc3)C1C=C2S(=O)(=O)c1ccccc1 (stereo not drawn) | > 100 µM (inactive) | > 100 µM (inactive) | > 100 µM (inactive) | > 100 µM (inactive) | > 100 µM (inactive) | > 100 µM (inactive) | > 100 µM (inactive) | – | – |
| COc1cc2cc(c1Cl)N(C)C(=O)C[C@H](OC(=O)[C@H](C)N(C)C(C)=O)[C@]1(C)O[C@H]1[C@H](C)[C@@H]1C[C@@](O)(NC(=O)O1)[C@H](OC)/C=C/C=C(/C)C2 | 0.025 µM (active) | 0.0323 µM (active) | 0.695 µM (active) | 0.0308 µM (active) | 0.0628 µM (active) | 0.025 µM (active) | 0.0628 µM (active) | 0.01 µM (active) | – |
| CC(C)N(C(=O)C12C3C4C1C1C2C3C41C#N)C(C)C (stereo not drawn) | > 72.8 µM (inactive) | > 100 µM (inactive) | > 100 µM (inactive) | > 100 µM (inactive) | > 100 µM (inactive) | > 100 µM (inactive) | > 100 µM (inactive) | > 71.8 µM (inactive) | > 100 µM (inactive) |
| Cc1c(CCl)c(=O)oc2c(C)c3occ(CCl)c(=O)c3cc12 | – | 20.2 µM (inactive) | 17.4 µM (inactive) | > 100 µM (inactive) | 16.2 µM (inactive) | – | – | – | 16 µM (inactive) |
| N#CCc1nnc(N)o1 | > 100 µM (inactive) | – | – | > 100 µM (inactive) | > 100 µM (inactive) | > 100 µM (inactive) | > 100 µM (inactive) | > 100 µM (inactive) | > 100 µM (inactive) |
| Cc1cc2c(Br)cc(Br)c(O)c2nc1C(=O)c1ccccc1 | 36.6 µM (inactive) | 31.6 µM (inactive) | 18.5 µM (inactive) | 28.4 µM (inactive) | 17.7 µM (inactive) | 50.1 µM (inactive) | – | 19 µM (inactive) | – |
| COC1CC(OS(=O)(=O)c2ccc(C)cc2)C(OC(=O)c2ccccc2)C(C)O1 (stereo not drawn) | > 10 µM (inactive) | > 100 µM (inactive) | > 10 µM (inactive) | > 10 µM (inactive) | > 10 µM (inactive) | > 10 µM (inactive) | > 100 µM (inactive) | > 10 µM (inactive) | – |
| O=C(NCCS(=O)(=O)N1C(=O)C2CCCN2C(=O)[C@@H]1Cc1ccccc1)OCc1ccccc1 (stereo partly drawn) | > 100 µM (inactive) | 22.4 µM (inactive) | > 100 µM (inactive) | 45.8 µM (inactive) | – | 61.9 µM (inactive) | 0.838 µM (active) | – | 45.6 µM (inactive) |
| C=C1C[C@]23CCC4C(C)(C)C(=O)CC[C@]4(C)C2C[C@H]1C(O)C3=O (stereo partly drawn) | > 75 µM (inactive) | – | > 75 µM (inactive) | > 75 µM (inactive) | > 75 µM (inactive) | > 75 µM (inactive) | > 75 µM (inactive) | – | > 75 µM (inactive) |
| CCN1CCC(O)(c2ccc(OC)cc2)C(C(=O)c2ccc(OC)cc2)C1 (stereo not drawn) | 16.9 µM (inactive) | 18.7 µM (inactive) | – | 18.6 µM (inactive) | 18.3 µM (inactive) | 26.1 µM (inactive) | 17.6 µM (inactive) | 22.8 µM (inactive) | 21.5 µM (inactive) |
| CC#Cc1c(C#CC)c(OC)c2c(c1OC)C(=O)c1ccccc1C2=O | 76 µM (inactive) | 20.7 µM (inactive) | – | > 100 µM (inactive) | > 100 µM (inactive) | – | > 100 µM (inactive) | 22.8 µM (inactive) | – |
| CCc1cccc(CC)c1NC(=O)CC1SC(N)=NC1=O (stereo not drawn) | – | > 100 µM (inactive) | > 100 µM (inactive) | – | > 100 µM (inactive) | > 100 µM (inactive) | > 100 µM (inactive) | > 100 µM (inactive) | > 100 µM (inactive) |
| O=C(COc1ccc(Cl)cc1)N1N=C(c2ccc([N+](=O)[O-])o2)CC1(O)c1ccccc1 (stereo not drawn) | 4.66 µM (inactive) | – | – | 12.3 µM (inactive) | 2.44 µM (inactive) | 13.8 µM (inactive) | 10.5 µM (inactive) | 5.28 µM (inactive) | 7.87 µM (inactive) |
